Source: US8835644B2, “Broad spectrum benzothiophene-nitrothiazolide and other antimicrobials” (University of Virginia Patent Foundation, priority 2009, dated 2014)
In brackets after ≈: the same amount, converted by molar mass. Structures can show the parent of a compound that is named as a salt. Where two headings read alike, the source gives them in different places. One block for each molecule: values may come before it.

Key:
[1] = system: S. epidermidis strain 9142; assay: Biofilm determination, crystal violet, S. epidermidis; assay type: cell-based, Staphylococcus epidermidis
Protocol: Staphylococcal strains were cultured overnight in TSB at 37° C. with shaking, diluted in fresh medium to an OD600 of 0.01 and 200 W was dispensed into sterile flat bottom polystyrene 96 well microtiter plates (Costar 3596, Corning Inc.). […] Each compound and dilution was tested in triplicate. The plates were incubated overnight at 37° C. in a humidified incubator, without shaking and both growth and biofilm accumulation were determined at 16 h.
Following recording of turbidities, the culture medium was aspirated and the wells were washed three times with distilled water, blotted on paper towels, and fixed with 75% ethanol for 10 minutes.
To visualize biofilm material, 0.5% crystal violet was added to each well and after 5 minutes was removed and the wells washed three times with distilled water. Plates were read using a microplate reader at a wavelength of 570 nm. The dye was then extracted by adding 200 W of 95% ethanol, and the absorbance was read again at 570 nm. All assays were performed in triplicate and the mean and standard deviation determined. Generally, the ethanol-solubilized crystal violet was more reliable and these determinations are reported throughout.

[2] = reference (33); cited from earlier work
[3] = system: S. aureus and S. epidermidis strains; assay: MIC by microdilution in TSB, staphylococcal strains; assay type: cell-based, Staphylococcus epidermidis; settings: Staphylococcus aureus
Protocol: Minimal inhibitory concentration testing of NTZ was done in sterile round bottom 96 well microtiter polystyrene plates (Corning Inc., Corning, N.Y.) by microdilution. Tizoxanide TIZ (deacetylated form of NTZ), denitro-NTZ (TIZ without 5-nitro group) and amoxanide AMIX (TIZ-ethylamine) were also tested. Bacteria were grown overnight and suspended in fresh TSB to an OD600 of 0.01 and 100 μl were dispensed into wells with the first well containing 200 μA NTZ and other antibiotics (DMSO control) were added to well one and serially diluted from 32 μg/ml. All compounds were tested in triplicate and plates were read visually or with a plate reader (Molecular Devices) at 8, 12 and at 24 h. MIC was determined as the first well in which no visible bacterial growth was noted relative to controls. Drug effects on aerobic growth were determined in 125 ml flasks containing 25 ml of TSB medium and following inoculation (detailed above), flasks were on a gyrorotary shaker (200 rpm) at 37° C. Final concentrations of NTZ were 0, 10 and 25 μg/ml and samples were removed at hourly intervals and absorbance determined at 600 nm.

[4] = Zn2+ chelation, spectrophotometric and 1H NMR; assay type: physicochemical; settings: 1H NMR in DMSO-d6, ratios 1:1, 1:2, 2:1, up to 72 h
Protocol: To test direct binding of Zn^2+ by NTZ in solution, we tested a range of concentrations of both NTZ and TIZ and scanned the solutions spectrophotometrically using an OLIS Cary-14 (OLIS Instruments Co., Bogart Ga.). Absolute spectra were recorded over a UV/Vis range from 220 nm to 700 nm. Spectral shifts in the 418 nm range would be attributable to changes in resonance within the thiazole ring that would result if Zn^2+ were coordinated by NTZ (9).
Chelation experiments were also performed utilizing NTZ and TIZ in DMSO-d6 (0.5 mL) with ZnCl2 using a 300 MHz Varian MercuryPlus spectrometer. Specifically, three ratios of NTZ to Zn^2+ were investigated (1:1, 1:2, 2:1) where NTZ was held constant (4 mg, 13 μmoles) while varying ZnCl2 (1.8 mg, 13 μmoles or 3.5 mg, 26 μmoles) or NTZ (8 mg, 26 μmoles) with ZnCl2 (1.8 mg, 13 μmoles). Three ratios of TIZ to Zn^2+ were also investigated (1:1, 1:2, 2:1) where TIZ was held constant (4 mg, 15 μmoles) while varying ZnCl2 (2.1 mg, 15 μmoles or 4.1 mg, 30 μmoles) or TIZ (8 mg, 30 μmoles) with ZnCl2 (2.1 mg, 15 μmoles). ^1H NMR spectra were then obtained after mixing for 5 min, 24 h, 48 h, and 72 h at room temperature. Any chelation event would be evidenced by shifting or broadening of the thiazole and benzene protons as well as loss of the amide proton.

[5] = system: PFOR (pyruvate ferredoxin oxidoreductase); assay: Direct PFOR enzyme assay; assay type: biochemical
[6] = system: C. difficile; assay: MIC by agar dilution, C. difficile; assay type: cell-based, Clostridium difficile
Protocol: A standard broth dilution protocol was used in 96 well microplates containing a standard dilution of the microorganism to be tested in 100 microliters of the appropriate medium. Appropriate medium: E. coli, LB medium; Staphylococcus strains, Trypticase Soy; and for H. pylori and C. jejuni, Brain Heart Infusion. The compounds to be tested were set at 32 μg/ml in 200 microliters in well one and then serially diluted to provide a range from 32 to 0.06. The wells were scored visually at 24 h. The well where there was no growth was recorded as the MIC. […]
Representative compounds of the invention were tested in a series of assays against a series of organisms as described above. […] The organisms tested include, C. difficile, H. pylori, C. jejuni, MRSA, S. epidermidis, and E. coli. S. epidermidis and E. coli were tested in the plank and biofilm assay. A disk diffusion assay was also used for C. difficile. Direct PFOR enzyme assays were also performed. All analogues and derivatives were not tested on every organism in every type of assay (the “-” in each table means that it was not tested).

[7] = system: H. pylori; assay: MIC testing by broth dilution, H. pylori; assay type: cell-based, Helicobacter pylori
Procedure, shortened: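 Helicobacter pylori was tested using a standard broth dilution method in 96 well microplates, each well holding a standard dilution of the organism in 100 microliters of Brain Heart Infusion. Compounds started at 32 μg/ml in 200 microliters in the first well and were serially diluted from 32 to 0.06. Wells were read visually at 24 h, and the MIC was the well with no growth.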

[8] = system: S. epidermidis; assay: MIC testing by broth dilution, S. epidermidis plank; assay type: cell-based, Staphylococcus epidermidis
Procedure, shortened: (§1)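 Media: LB (E. coli), Trypticase Soy (S. epidermidis), BHI (C. jejuni); plank cells. C. difficile on Wilkins Chalgrin agar, anaerobic Kirby-Bauer disks, zone vs NTZ zone ratio.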

[9] = system: C. jejuni; assay: MIC testing by broth dilution, C. jejuni; assay type: cell-based, Campylobacter jejuni
Procedure, shortened: as §1

[10] = system: C. difficile; assay: Disk diffusion (Kirby Bower), C. difficile; assay type: cell-based, Clostridium difficile; settings: for Disk Diff (%) C. difficile: Nitazoxanide = 100, Thiophene analogues table; for Disk Diffusion (%) C. difficile: zone of inhibited growth as relative ratio to the zone for NTZ
Procedure, shortened: as §1

[11] = system: S. epidermidis biofilm; assay: S. epidermidis biofilm assay (activity tables); assay type: cell-based, Staphylococcus epidermidis; settings: for MIC S. epidermidis Biofilm: Thiophene analogues table
Procedure, shortened: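 Overnight TSB cultures diluted to OD600 0.01 and grown static with compound (triplicate) at 37° C for 16 h; turbidity recorded for growth. Biofilm: washed wells ethanol-fixed, stained with 0.5% crystal violet, A570 read before and after 95% ethanol extraction; mean ± SD.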

[12] = system: MRSA; assay: MIC testing by broth dilution, MRSA; assay type: cell-based, Staphylococcus aureus
Procedure, shortened: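 Values are broth-dilution MICs, defined as the well showing no growth on visual reading after 24 h; the tested range was 32 to 0.06 μg/ml, in organism-specific media (LB, Trypticase Soy, Brain Heart Infusion). The C. difficile entries come instead from anaerobic Kirby-Bauer disk zones, normalised to NTZ.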

[13] = system: E. coli biofilm; assay: E. coli biofilm assay (activity tables); assay type: cell-based, Escherichia coli
Procedure, shortened: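 E. coli strain 042 inoculated 1:100 with NTZ-containing medium and grown statically at 37 °C for 24 h. Growth measured by turbidity or plate counts (cfu/ml); biofilm stained with 0.5% crystal violet and read at 570 nm; triplicate, mean ± SD.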

[14] = system: E. coli; assay: MIC testing by broth dilution, E. coli plank; assay type: cell-based, Escherichia coli
Procedure, shortened: as §1

[15] = Solubility in water; assay type: physicochemical
[16] = system: S. epidermidis strain 9142; assay: Effect of zinc on the action of NTZ (biofilm and MIC); assay type: cell-based, Staphylococcus epidermidis; settings: zinc 20 μM, read at 8 h
Protocol: […] As a control, ZnCl2 was added to untreated bacteria. Additional controls included testing of 10 μM CaCl2 and MgCl2 in the same format. The inhibitory effect of EDTA on biofilm production and its reversibility by Zn^2+ was also assessed as described for NTZ.

[17] = system: E. histolytica; assay: Amoebic dysentery mouse infection model; assay type: in vivo; settings: drugs given orally or parenterally in advance
[18] = system: E. histolytica; assay: E. histolytica cell counts
[19] = Thiophene analogues table, read-out: MIC C. difficile
[20] = Thiophene analogues table, read-out: MIC H. pylori
[21] = planktonic, Thiophene analogues table, read-out: MIC S. epidermidis Plank
[22] = Thiophene analogues table, read-out: MIC C. jejuni
[23] = Thiophene analogues table, read-out: MIC MRSA
[24] = biofilm, Thiophene analogues table, read-out: MIC E. coli Biofilm
[25] = planktonic, Thiophene analogues table, read-out: MIC E. coli Plank

SMILES: O=C(Nc1ncc([N+](=O)[O-])s1)c1ccccc1O [TIZ]
Inhibition of biofilm production ([1]; compared with NTZ): equivalent results | Bound to plasma proteins [2]: 97.5% | MIC ([3]; staphylococcal strains incl. MRSA S. aureus, microdilution in TSB, read-out: MIC): 8 to 16 µg/mL (≈ 30.2 to 60.3 µM) | Chelation with ZnCl2 [4]: no chelation

SMILES: O=C(Nc1ncc([N+](=O)[O-])s1)c1sc2cc(F)ccc2c1Cl [VPC161115]
PFOR inhibition relative to nitazoxanide (=100) ([5]; Thiophene analogues table): 96% | MIC [6, 19]: 11.2 µM (≈ 4.01 µg/mL) | MIC [7, 20]: 1.0 µM (≈ 0.358 µg/mL) | MIC [8, 21]: 5.6 µM (≈ 2 µg/mL) | MIC [9, 22]: 5.6 µM (≈ 2 µg/mL) | Disk Diff (%) C. difficile [10]: 44% | MIC S. epidermidis Biofilm [11]: 0.1 µM (≈ 0.0358 µg/mL) | MIC [12, 23]: 2.1 µM (≈ 0.751 µg/mL) | MIC [13, 24]: 5.6 µM (≈ 2 µg/mL) | MIC [14, 25]: 89.4 µM (≈ 32 µg/mL)

SMILES: COc1cccc(C(=O)Nc2ncc([N+](=O)[O-])s2)c1 [VPC161193]
PFOR inhibition relative to nitazoxanide (=100) [5]: 82% | MIC ([6]; agar dilution, anaerobic, Wilkins Chalgrin agar, read-out: MIC (μM) C. difficile): 28.6 µM (≈ 7.99 µg/mL) | MIC ([7]; broth dilution, Brain Heart Infusion, 24 h, read-out: MIC (μM) H. pylori): 1.3 µM (≈ 0.363 µg/mL) | MIC ([8]; broth dilution, Trypticase Soy, 24 h, read-out: MIC (μM) S. epidermidis Plank): 28.6 µM (≈ 7.99 µg/mL) | MIC ([9]; broth dilution, Brain Heart Infusion, 24 h, read-out: MIC (μM) C. jejuni): 7.2 µM (≈ 2.01 µg/mL) | Disk Diffusion (%) C. difficile [10]: 73 ± 1% | MIC (μM) S. epidermidis Biofilm [11]: 57.3 µM (≈ 16 µg/mL) | MIC ([12]; broth dilution, Trypticase Soy, 24 h, read-out: MIC (μM) MRSA): 14.3 µM (≈ 3.99 µg/mL) | MIC ([13]; biofilm, read-out: MIC (μM) E. coli Biofilm): 114.6 µM (≈ 32 µg/mL) | MIC ([14]; broth dilution, LB medium, 24 h, read-out: MIC (μM) E. coli Plank): 114.6 µM (≈ 32 µg/mL)

PFOR inhibition relative to nitazoxanide (=100) ([5]; Thiophene analogues table): 48% | MIC [6, 19]: 12.3 µM (≈ 3.99 µg/mL) | MIC [7, 20]: 1.5 µM (≈ 0.486 µg/mL) | MIC [8, 21]: 12.3 µM (≈ 3.99 µg/mL) | MIC [9, 22]: 2.3 µM (≈ 0.746 µg/mL) | MIC S. epidermidis Biofilm [11]: 24.7 µM (≈ 8.01 µg/mL) | MIC [12, 23]: 6.2 µM (≈ 2.01 µg/mL) | MIC [13, 24]: 24.7 µM (≈ 8.01 µg/mL) | MIC [14, 25]: 98.7 µM (≈ 32 µg/mL)
SMILES: O=C(Nc1ncc([N+](=O)[O-])s1)c1cc(Cl)sc1Cl [VPC161199]
Disk Diff (%) C. difficile [10]: 89%

SMILES: NCCOc1ccccc1C(=O)Nc1ncc([N+](=O)[O-])s1 [VPC161219, 2-(2-Aminoethoxy)-N-(5-nitrothiazol-2-yl)benzamide hydrochloride]
PFOR inhibition relative to nitazoxanide (=100) [5]: 114% | Fold difference in water solubility versus NTZ ([15]; more soluble than NTZ): 15 fold | solubility ([15]; water): 400 µg/mL | Effect of Zn2+ on the growth inhibitory action (MIC) [16]: no effect | Fold decrease in anti-biofilm potency versus NTZ ([1]; S. epidermidis 9142): 2 fold | IC50 ([1]; Staphylococcus epidermidis, 9142, read-out: IC50 biofilm production): 8 µg/mL | MIC ([6]; Clostridioides difficile, read-out: MIC (μM) C. difficile): 46.4 µM | MIC ([7]; Helicobacter pylori, 24 h, read-out: MIC (μM) H. pylori): 0.7 µM | MIC ([8]; Staphylococcus epidermidis, 24 h, read-out: MIC (μM) S. epidermidis Plank): 92.8 µM | MIC ([9]; Campylobacter jejuni, 24 h, read-out: MIC (μM) C. jejuni): 17.4 µM | MIC ([3]; MRSA): 16 to 32 µg/mL | Disk Diffusion (%) C. difficile [10]: 88 ± 4% | Prevention rates [17]: equivalence | MIC (μM) S. epidermidis Biofilm [11]: 46.4 µM | MIC ([12]; Staphylococcus aureus, MRSA, 24 h, read-out: MIC (μM) MRSA): 92.8 µM | MIC ([13]; Escherichia coli, read-out: MIC (μM) E. coli Biofilm): 46.4 µM | E. histolytica cell counts, compared by MIC [18]: superior to nitazoxanide based on MIC | MIC ([14]; Escherichia coli, 24 h, read-out: MIC (μM) E. coli Plank): 69.6 µM
